Patent US8008464B2, “SSX-4 peptides presented by HLA class II molecules” (Ludwig Institute for Cancer Research Ltd., priority 2004, dated 2011)

System: circulating CD4+ T cells from melanoma patients and healthy donors
Assay: Intracellular IFN-γ staining of in vitro stimulated CD4+ T cell cultures (flow cytometry)
Assay type: cell-based, human
Details: after second cycle of in vitro stimulation with SSX-4 peptide pool
Description: In vitro stimulation of SSX-4 specific T cells was carried out as described previously (Ayyoub, M., et al., 2004, An immunodominant SSX-2-derived epitope recognized by CD4+ T cells in association with HLA-DR, J Clin Invest, 113:1225-1233). Briefly, 1 to 2×10^6 CD4^+ T cells highly enriched (>90%) from PBMC by magnetic cell sorting using a miniMACS magnetic cell separator device (Miltenyi Biotec, Auburn, Calif., USA) were stimulated with autologous antigen presenting cells in the presence of a pool of partially overlapping peptides spanning the entire SSX-4 protein sequence (2 μM each). Two weeks later the culture was tested using the same peptide pool or individual peptides from the pool, as indicated. CD4^+ T cells secreting IFN-γ in response to peptide stimulation were isolated by cytokine guided magnetic cell sorting using the cytokine secretion detection kit (Miltenyi Biotec) and cloned by limiting dilution culture in the presence of PHA (Sigma, St Louis, Mo., USA), allogeneic irradiated PBMC and rhIL-2 as described (Ayyoub, M., et al., 2004, J Clin Invest, 113:1225-1233). Clones were subsequently expanded by periodic (3-4 weeks) stimulation under the same conditions.
For intracellular cytokine secretion detection, T cells were stimulated in the absence or in the presence of peptides at the indicated dose during 4 h as described previously (Ayyoub, M., et al., 2004, J Clin Invest, 113:1225-1233). One hour after the beginning of the incubation, Brefeldin A (10 μg/ml, Sigma) was added to inhibit cytokine secretion. After incubation, cells were stained with anti-CD4 mAb (Becton Dickinson, San Diego, Calif., USA) for 20 min at 4° C. and fixed using formaldehyde, permeabilized with saponine (Sigma, 0.1% in PBS 5% FCS), stained with anti IFN-γ mAb (BD Pharmingen, San Diego, Calif., USA) and analyzed by flow cytometry. Data analysis was performed using Cell Quest software. IFN-γ secretion was assessed as described (Ayyoub, M., et al., 2004, J Clin Invest, 113:1225-1233). T cells (10,000) were incubated in the absence or in the presence of peptides at the indicated dose in 96-well round-bottom plates in 200 μl/well of medium. Where indicated, APC (EBV-B cells, 10,000/well) preincubated or not with antigen and extensively washed, were added. In some experiments tumor cells were used as APC. Where indicated, tumor cells were transiently transfected with SSX-4 cDNA, cloned into pcDNA3.1 vector, using FUGENE (reagent for transferring nucleic acid inside cells) according to the manufacturer's instructions (Roche Diagnostics, Indianapolis, Ind., USA). After 24 h incubation at 37° C., culture supernatants were collected and the content of IFNI determined by ELISA (BioSource International, Camarillo, Calif., USA).
We analyzed CD4^+ T cell responses to SSX-4 in circulating lymphocytes from 4 melanoma patients with detectable SSX-4 expression in the autologous tumor sample and/or autologous tumor line. CD4^+ T cells were isolated from patients' PBMC by magnetic cell sorting and stimulated in vitro with a pool containing 20 amino acid long peptides overlapping by 10 amino acids and spanning the SSX-4 protein sequence, in the presence of irradiated autologous antigen presenting cells (APC). As internal control, PBMC samples from 4 healthy donors were processed and stimulated under the same conditions. Cultures were tested using the SSX-4 peptide pool for the presence of specific, IFNI secreting CD4^+ T cells, by staining with IFN-γ and CD4-specific monoclonal antibodies (FIG. 1A). After the first cycle of in vitro stimulation (Table 1) no clear responses were detectable in patients' samples, although the proportion of IFN-γ secreting CD4^+ T cells was 2 to 3 fold higher in the presence than in the absence of the peptide pool in the case of 3/4 patients. In contrast, after the second cycle of in vitro stimulation, specific responses to the SSX-4 peptide pool were clearly detected for 3/4 patients. […]

[1] = patient LAU 14, no peptide 0.03
[2] = patient LAU 97, no peptide 0.02

| Substance | percent of CD4+ IFN-γ secreting cells (patient 331, no peptide 0.03) [%] | percent of CD4+ IFN-γ secreting cells [1] [%] | percent of CD4+ IFN-γ secreting cells [2] [%] |
| --- | --- | --- | --- |
| SSX-4 121-140: 20 amino acid long peptide of the overlapping pool, SSX-4 residues 121-140 (NGLKEVPEASGPQNDGKQLC; UniProt O60224 121-140, looked up, fragment) | 0.01 | <0.01 | <0.01 |
| SSX-4 21-40: 20 amino acid long peptide of the overlapping pool, SSX-4 residues 21-40 (LRKAFDDIAKYFSKKEWEKM; UniProt O60224 21-40, looked up, fragment) | 0.02 | 0.04 | <0.01 |
| SSX-4 111-130: 20 amino acid long peptide of the overlapping pool, SSX-4 residues 111-130 (IMPKKPAEEENGLKEVPEAS; UniProt O60224 111-130, looked up, fragment) | 0.01 | 0.01 | <0.01 |
| SSX-4 81-100: 20 amino acid long peptide of the overlapping pool, SSX-4 residues 81-100 (GNDFGNDRNHRNQVERPQMT; UniProt O60224 81-100, looked up, fragment) | 0.02 | <0.01 | 0.02 |
| SSX-4 171-188: C-terminal peptide of the overlapping pool, SSX-4 residues 171-188 (RKQLVVYEEISDPEEDDE; UniProt O60224 171-188, looked up, fragment) | 0.02 | <0.01 | 0.01 |
| SSX-4 91-110: 20 amino acid long peptide of the overlapping pool, SSX-4 residues 91-110 (RNQVERPQMTFGSLQRIFPK; UniProt O60224 91-110, looked up, fragment) | 0.02 | 0.03 | <0.01 |
| SSX-4 1-20: 20 amino acid long peptide of the overlapping pool, SSX-4 residues 1-20 (MNGDDAFARRPRDDAQISEK; UniProt O60224 1-20, looked up, fragment) | <0.01 | 0.07 | <0.01 |
| SSX-4 71-90: 20 amino acid long peptide of the overlapping pool, SSX-4 residues 71-90 (MRSKRAADFHGNDFGNDRNH; UniProt O60224 71-90, looked up, fragment) | 0.05 | 0.03 | <0.01 |
| SSX-4 141-160: 20 amino acid long peptide of the overlapping pool, SSX-4 residues 141-160 (PPGNPSTLEKINKTSGPKRG; UniProt O60224 141-160, looked up, fragment) | 0.01 | 0.03 | <0.01 |
| SSX-4 11-30: 20 amino acid long peptide of the overlapping pool, SSX-4 residues 11-30 (PRDDAQISEKLRKAFDDIAK; UniProt O60224 11-30, looked up, fragment) | 0.02 | <0.01 | <0.01 |
| SSX-4 131-150: 20 amino acid long peptide of the overlapping pool, SSX-4 residues 131-150 (GPQNDGKQLCPPGNPSTLEK; UniProt O60224 131-150, looked up, fragment) | 0.02 | 0.01 | <0.01 |
